Reference: PubChem BioAssay (NCI)
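Results reflect a 48-hour exposure of cells in 96-well plates to compound at five concentrations. GI50 marks 50% less growth. TGI marks complete inhibition of growth.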

Columns and labels:
Assay in all cases: NCI-60 cell line screen, 48 h
A549 NSCLC = system: A549 NSCLC
HL-60(TB) leukemia = system: HL-60(TB) leukemia
HOP-92 NSCLC = system: HOP-92 NSCLC
T-47D breast = system: T-47D breast
SK-MEL-5 melanoma = system: SK-MEL-5 melanoma
SW-620 colon = system: SW-620 colon
CAKI-1 renal = system: CAKI-1 renal
OVCAR-3 ovarian = system: OVCAR-3 ovarian
SF-295 CNS = system: SF-295 CNS
RPMI-8226 leukemia = system: RPMI-8226 leukemia
HCT-15 colon = system: HCT-15 colon
ACHN renal = system: ACHN renal
SR leukemia = system: SR leukemia
HS 578T breast = system: HS 578T breast
OVCAR-4 ovarian = system: OVCAR-4 ovarian
UO-31 renal = system: UO-31 renal
M14 melanoma = system: M14 melanoma
SK-MEL-28 melanoma = system: SK-MEL-28 melanoma
UACC-62 melanoma = system: UACC-62 melanoma
SNB-19 CNS = system: SNB-19 CNS
A498 renal = system: A498 renal
HCT-116 colon = system: HCT-116 colon
U251 CNS = system: U251 CNS
KM12 colon = system: KM12 colon
IGROV1 ovarian = system: IGROV1 ovarian
NCI/ADR-RES ovarian = system: NCI/ADR-RES ovarian
OVCAR-8 ovarian = system: OVCAR-8 ovarian
SNB-75 CNS = system: SNB-75 CNS
SF-539 CNS = system: SF-539 CNS
DU-145 prostate = system: DU-145 prostate
COLO 205 colon = system: COLO 205 colon
HCC-2998 colon = system: HCC-2998 colon
UACC-257 melanoma = system: UACC-257 melanoma
NCI-H23 lung = system: NCI-H23 lung
BT-549 breast = system: BT-549 breast
CCRF-CEM leukemia = system: CCRF-CEM leukemia
SN12C renal = system: SN12C renal
MALME-3M melanoma = system: MALME-3M melanoma
LOX IMVI melanoma = system: LOX IMVI melanoma
RXF 393 renal = system: RXF 393 renal
MDA-MB-435 = system: MDA-MB-435
SK-MEL-2 melanoma = system: SK-MEL-2 melanoma
MCF7 breast = system: MCF7 breast
TK-10 renal = system: TK-10 renal
786-0 renal = system: 786-0 renal
SK-OV-3 ovarian = system: SK-OV-3 ovarian
NCI-H460 lung = system: NCI-H460 lung
MDA-MB-231 breast = system: MDA-MB-231 breast
PC-3 prostate = system: PC-3 prostate
HT29 colon = system: HT29 colon
HOP-62 NSCLC = system: HOP-62 NSCLC
OVCAR-5 ovarian = system: OVCAR-5 ovarian
MOLT-4 leukemia = system: MOLT-4 leukemia
SF-268 CNS = system: SF-268 CNS
K-562 leukemia = system: K-562 leukemia
NCI-H522 lung = system: NCI-H522 lung
NCI-H226 lung = system: NCI-H226 lung
EKVX NSCLC = system: EKVX NSCLC

## O=C(CCC(C(=O)c1ccccc1)c1ccccc1)c1ccccc1 (centres undefined)
A549 NSCLC
  GI50: 7.29 µM
  TGI: > 100 µM
HL-60(TB) leukemia
  GI50: 4.72 µM
  TGI: 55.9 µM
HOP-92 NSCLC
  GI50: 3.4 µM
  TGI: 72.2 µM
T-47D breast
  GI50: 7.69 µM
  TGI: > 100 µM
SK-MEL-5 melanoma
  GI50: 9.29 µM
  TGI: 34.3 µM
SW-620 colon
  GI50: 3.75 µM
  TGI: > 100 µM
CAKI-1 renal
  GI50: 5.7 µM
  TGI: > 100 µM
OVCAR-3 ovarian
  GI50: 5.78 µM
  TGI: > 100 µM
SF-295 CNS
  GI50: 6.83 µM
  TGI: > 100 µM
RPMI-8226 leukemia
  GI50: 5.75 µM
  TGI: 76.1 µM
HCT-15 colon
  GI50: 4.92 µM
  TGI: > 100 µM
ACHN renal
  GI50: 31.3 µM
  TGI: > 100 µM
SR leukemia
  GI50: 4.46 µM
  TGI: > 100 µM
HS 578T breast
  GI50: 11.8 µM
  TGI: > 100 µM
OVCAR-4 ovarian
  GI50: 16.5 µM
  TGI: > 100 µM
UO-31 renal
  GI50: 7.28 µM
  TGI: > 100 µM
M14 melanoma
  GI50: 6.82 µM
  TGI: > 100 µM
SK-MEL-28 melanoma
  GI50: 55.7 µM
  TGI: > 100 µM
UACC-62 melanoma
  GI50: 7.15 µM
  TGI: > 100 µM
SNB-19 CNS
  GI50: 73.8 µM
  TGI: > 100 µM
A498 renal
  GI50: 1.44 µM
  TGI: 58.1 µM
HCT-116 colon
  GI50: 6.45 µM
  TGI: > 100 µM
U251 CNS
  GI50: 13.4 µM
  TGI: > 100 µM
KM12 colon
  GI50: 3.94 µM
  TGI: > 100 µM
IGROV1 ovarian
  GI50: 32 µM
  TGI: > 100 µM
NCI/ADR-RES ovarian
  GI50: 4.74 µM
  TGI: > 100 µM
OVCAR-8 ovarian
  GI50: 21.6 µM
  TGI: > 100 µM
SNB-75 CNS
  GI50: 27.2 µM
  TGI: > 100 µM
SF-539 CNS
  GI50: 52 µM
  TGI: > 100 µM
DU-145 prostate
  GI50: 30.1 µM
  TGI: > 100 µM
COLO 205 colon
  GI50: 8.8 µM
  TGI: > 100 µM
HCC-2998 colon
  GI50: 29.7 µM
  TGI: > 100 µM
UACC-257 melanoma
  GI50: 17.5 µM
  TGI: > 100 µM
NCI-H23 lung
  GI50: 10.8 µM
  TGI: > 100 µM
BT-549 breast
  GI50: 7.92 µM
  TGI: 86.7 µM
CCRF-CEM leukemia
  GI50: 3.97 µM
  TGI: 77.2 µM
SN12C renal
  GI50: 20.2 µM
  TGI: > 100 µM
MALME-3M melanoma
  GI50: 5.51 µM
  TGI: 63.8 µM
LOX IMVI melanoma
  GI50: 20.7 µM
  TGI: > 100 µM
RXF 393 renal
  GI50: 11.8 µM
  TGI: > 100 µM
MDA-MB-435
  GI50: 2.01 µM
  TGI: 6.03 µM
SK-MEL-2 melanoma
  GI50: 7.07 µM
  TGI: 46.7 µM
MCF7 breast
  GI50: 15.1 µM
  TGI: > 100 µM
TK-10 renal
  GI50: 38.6 µM
  TGI: > 100 µM
786-0 renal
  GI50: 49.4 µM
  TGI: > 100 µM
SK-OV-3 ovarian
  GI50: 78.8 µM
  TGI: > 100 µM
NCI-H460 lung
  GI50: 6.5 µM
  TGI: > 100 µM
MDA-MB-231 breast
  GI50: 23.4 µM
  TGI: > 100 µM
PC-3 prostate
  GI50: 7.94 µM
  TGI: > 100 µM
HT29 colon
  GI50: 4.21 µM
  TGI: > 100 µM
HOP-62 NSCLC
  GI50: 25.5 µM
  TGI: > 100 µM
OVCAR-5 ovarian
  GI50: 80.4 µM
  TGI: > 100 µM
MOLT-4 leukemia
  GI50: 5.75 µM
  TGI: > 100 µM
SF-268 CNS
  GI50: 35.6 µM
  TGI: > 100 µM
K-562 leukemia
  GI50: 3.75 µM
  TGI: > 100 µM
NCI-H522 lung
  GI50: 2.64 µM
  TGI: 8.98 µM

## COc1cc(/C=C/C(=O)CC(=O)/C=C/c2ccc(O)c(OC)c2)ccc1O
A549 NSCLC
  TGI: 31.7 µM
HL-60(TB) leukemia
  TGI: 25 µM
T-47D breast
  TGI: 46.9 µM
NCI-H226 lung
  TGI: 53.7 µM
SK-MEL-5 melanoma
  TGI: 22.5 µM
SW-620 colon
  TGI: 21.2 µM
CAKI-1 renal
  TGI: 25.1 µM
OVCAR-3 ovarian
  TGI: 24.7 µM
SF-295 CNS
  TGI: 20.7 µM
RPMI-8226 leukemia
  TGI: 6.28 µM
HCT-15 colon
  TGI: 18.5 µM
ACHN renal
  TGI: 28.9 µM
SR leukemia
  TGI: 14.6 µM
HS 578T breast
  TGI: 58.5 µM
OVCAR-4 ovarian
  TGI: 36.6 µM
UO-31 renal
  TGI: 24.8 µM
M14 melanoma
  TGI: 16 µM
SK-MEL-28 melanoma
  TGI: 15.9 µM
UACC-62 melanoma
  TGI: 20.6 µM
SNB-19 CNS
  TGI: 15.7 µM
A498 renal
  TGI: 33.1 µM
HCT-116 colon
  TGI: 9.36 µM
U251 CNS
  TGI: 16.5 µM
KM12 colon
  TGI: 19.7 µM
IGROV1 ovarian
  TGI: 26.7 µM
NCI/ADR-RES ovarian
  TGI: 27.6 µM
OVCAR-8 ovarian
  TGI: 28.4 µM
SNB-75 CNS
  TGI: 18 µM
SF-539 CNS
  TGI: 8.87 µM
DU-145 prostate
  TGI: 29.7 µM
COLO 205 colon
  TGI: 28.9 µM
HCC-2998 colon
  TGI: 8.08 µM
UACC-257 melanoma
  TGI: 23.9 µM
NCI-H23 lung
  TGI: 31.8 µM
BT-549 breast
  TGI: 13.7 µM
CCRF-CEM leukemia
  TGI: 15.6 µM
SN12C renal
  TGI: 25.1 µM
EKVX NSCLC
  TGI: […]
MALME-3M melanoma
  TGI: 27.4 µM
LOX IMVI melanoma
  TGI: 15.5 µM
RXF 393 renal
  TGI: 11.3 µM
MDA-MB-435
  TGI: 12.1 µM
SK-MEL-2 melanoma
  TGI: 40.3 µM
MCF7 breast
  TGI: 34.3 µM
TK-10 renal
  TGI: 30.6 µM
786-0 renal
  TGI: 10.8 µM
SK-OV-3 ovarian
  TGI: 21 µM
NCI-H460 lung
  TGI: 23.1 µM
MDA-MB-231 breast
  TGI: 55.7 µM
PC-3 prostate
  TGI: 26 µM
HT29 colon
  TGI: 32.4 µM
HOP-62 NSCLC
  TGI: 19.1 µM
OVCAR-5 ovarian
  TGI: […]
MOLT-4 leukemia
  TGI: 18 µM
SF-268 CNS
  TGI: 36.1 µM
K-562 leukemia
  TGI: > 55.6 µM
NCI-H522 lung
  TGI: 16.7 µM
